According to publication PMC11935913, “Silk Nanococoons: Bio‐Nanoreactors for Enzymatic Catalytic Reactions and Applications to Alcohol Intoxication” (Small Science, 2021):

Molecular target: T1, horseradish peroxidase (HRP) (Armoracia rusticana, UniProt P00433)
T1 construct: gene PRXC1A
T1 sequence (P00433 31-338): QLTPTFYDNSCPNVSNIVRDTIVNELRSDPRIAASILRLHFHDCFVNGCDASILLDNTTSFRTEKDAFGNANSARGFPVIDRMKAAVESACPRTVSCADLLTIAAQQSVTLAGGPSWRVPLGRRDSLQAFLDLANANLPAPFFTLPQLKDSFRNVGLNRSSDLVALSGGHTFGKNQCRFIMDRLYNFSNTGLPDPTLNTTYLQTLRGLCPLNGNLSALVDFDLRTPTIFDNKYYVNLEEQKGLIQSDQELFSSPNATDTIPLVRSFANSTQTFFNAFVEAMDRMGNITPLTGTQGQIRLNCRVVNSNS
Test: absorbance, plate reader, oxidation by H2O2
Format: biochemical
Details: H2O2 co-substrate

SMILES	absorbance, plate reader, oxidation by H2O2 (enzyme in silk fibroin nanospheres)	absorbance, plate reader, oxidation by H2O2 (generated by GOx from glucose)
Cc1cc(-c2cc(C)c(N)c(C)c2)cc(C)c1N [3,3′,5,5′‐tetramethylbenzidine]	activity recovery of enzyme HRP in SENs was monitored by the oxidation of TMB	
COc1cc(-c2ccc(N)c(OC)c2)ccc1N [o‐dianisidine]		the ODS or TMB gets oxidized by H2O2 under the catalysis of HRP
